Reference: patent publication US11332443B2, “Derivatives of halo quinabactin” (THE REGENTS OF THE UNIVERSITY OF CALIFORNIA, priority 2015, dated 2022)

Tests used:
Assay type in all cases: biochemical
[1] = molecular target: T1, PYR1-HAB1 (Arabidopsis thaliana, UniProt O49686); test: PP2C activity assay, PYR1-HAB1 inhibition; details: for activity at 0.2 µM: 200 nM test compound, 100 nM HAB1 PP2C, 200 nM receptor, read-out: % Inhibition of PYR/PYL-HAB1 at 200 nM: PYR1; for IC50: dose response in triplicate, non-linear regression
T1 construct: 6xHis (N); made in house; host or cells: E. coli BL21[DE3]pLysS (stated for GST-HAB1)
T1 sequence (O49686 1-191): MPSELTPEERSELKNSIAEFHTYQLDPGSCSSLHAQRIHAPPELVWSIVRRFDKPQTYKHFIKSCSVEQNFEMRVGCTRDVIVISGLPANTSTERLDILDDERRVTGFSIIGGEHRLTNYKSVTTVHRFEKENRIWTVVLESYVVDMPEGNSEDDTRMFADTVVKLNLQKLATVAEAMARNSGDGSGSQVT
T1 sequence (Q9CAJ0 23-511 partner): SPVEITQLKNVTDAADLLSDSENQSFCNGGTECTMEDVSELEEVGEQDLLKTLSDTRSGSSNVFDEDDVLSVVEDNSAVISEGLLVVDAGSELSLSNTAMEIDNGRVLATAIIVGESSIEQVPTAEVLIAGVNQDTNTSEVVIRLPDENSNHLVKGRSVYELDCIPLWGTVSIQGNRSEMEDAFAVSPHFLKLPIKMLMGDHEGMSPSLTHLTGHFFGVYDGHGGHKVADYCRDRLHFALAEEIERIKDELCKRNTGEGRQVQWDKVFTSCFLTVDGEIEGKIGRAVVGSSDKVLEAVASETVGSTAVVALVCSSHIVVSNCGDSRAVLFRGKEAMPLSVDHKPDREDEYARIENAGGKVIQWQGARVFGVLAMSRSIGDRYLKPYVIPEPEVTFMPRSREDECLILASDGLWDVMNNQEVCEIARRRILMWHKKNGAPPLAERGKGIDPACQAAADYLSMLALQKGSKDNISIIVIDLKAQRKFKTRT
From the text: (§1) The protein HAB1, a type 2 protein phosphatase (PP2C), is inhibited by PYR/PYL proteins in dependence of abscisic acid or other agonists. The potency of an agonist correlates with the level of inhibition of the PP2C, and therefore the IC50 (receptor-HAB1) can be used to compare the relative activity of different chemical analogues. Since inhibition of PP2C correlates to inhibition of seed-germination and increase in plant water-use efficiency, it serves as a powerful tool to quantify biological potential of a chemical acting as an analogue of abscisic acid.
(§2) HAB1 and PYL proteins were expressed and purified as described in Park et al. ((2009) Science 324(5930):1068-1071), with minor modifications. GST-HAB1 was produced by expression in BL21[DE3]pLysS host cells with an expression clone containing the HAB1 cDNA cloned into pGex-2T. Transformed E. coli cells were pre-cultured overnight, transferred to LB medium and cultured at 30° C. to culture A600 of ˜0.5 OD units. The culture was then cooled on ice and MnCl2 added to 4 mM and IPTG added to 0.3 mM. After 16 hours incubation at 15° C., cells were harvested and recombinant proteins were purified on glutathione agarose as described in Park et al. To obtain 6×His-PYL receptor fusion proteins, we used expression constructs previously described by Okamoto et al. 2013, (PNAS 110(29): 12132-12137).
(§3) PP2C activity assays using recombinant receptors and PP2Cs were carried out as follows: purified proteins were pre-incubated in 160 μl assay buffer containing (100 mM Tris-HCl-pH7.9, 100 mM NaCl, 3 μg bovine serum albumin and 0.1% 2-mercaptoethanol), 1 mM MnCl2 with carrier solvent (DMSO), quinabactin or quinabactin analogs (compounds of the present invention) for 30 minutes at room temperature. Reactions were started by adding 40 μL of a reaction solution containing 25 mM 4-nitrophenyl phosphate in assay buffer, after which absorbance measurements were immediately collected (405 nm) using a Wallac plate reader. […] Inhibition is indicated by reduced PP2C activity, which is expressed as a percentage of the control PP2C activity values that were obtained from assays containing carrier solvent instead but no test compound.

[2] = molecular target: T2, PYL1-HAB1 (Arabidopsis thaliana, UniProt Q8VZS8); test: PP2C activity assay, PYL1-HAB1 inhibition; details: 200 nM test compound, 100 nM HAB1 PP2C, 200 nM receptor; read-out: % Inhibition of PYR/PYL-HAB1 at 200 nM: PYL1
T2 construct: 6xHis (N); made in house; host or cells: E. coli BL21[DE3]pLysS (stated for GST-HAB1)
T2 sequence (Q8VZS8 1-221): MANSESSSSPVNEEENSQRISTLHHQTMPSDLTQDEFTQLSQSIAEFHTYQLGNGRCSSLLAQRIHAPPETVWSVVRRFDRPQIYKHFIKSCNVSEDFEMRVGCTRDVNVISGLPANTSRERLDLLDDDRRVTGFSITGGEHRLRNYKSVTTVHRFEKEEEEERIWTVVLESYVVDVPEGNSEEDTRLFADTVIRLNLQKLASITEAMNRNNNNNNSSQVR
T2 sequence (Q9CAJ0 23-511 partner): T1 sequence (Q9CAJ0 23-511 partner)
From the text: as §1, §2
PP2C activity assays using recombinant receptors and PP2Cs were carried out as follows: purified proteins were pre-incubated in 160 μl assay buffer containing (100 mM Tris-HCl-pH7.9, 100 mM NaCl, 3 μg bovine serum albumin and 0.1% 2-mercaptoethanol), 1 mM MnCl2 with carrier solvent (DMSO), quinabactin or quinabactin analogs (compounds of the present invention) for 30 minutes at room temperature. Reactions were started by adding 40 μL of a reaction solution containing 25 mM 4-nitrophenyl phosphate in assay buffer, after which absorbance measurements were immediately collected (405 nm) using a Wallac plate reader. Reactions contained 100 nM HAB1 PP2C and 200 nM receptor and 200 nM test compound. Inhibition is indicated by reduced PP2C activity, which is expressed as a percentage of the control PP2C activity values that were obtained from assays containing carrier solvent instead but no test compound.

[3] = molecular target: T3, PYL2-HAB1 (Arabidopsis thaliana, UniProt O80992); test: PP2C activity assay, PYL2-HAB1 inhibition; details: for percent inhibition at 0.2 µM: 200 nM test compound, 100 nM HAB1 PP2C, 200 nM receptor, read-out: % Inhibition of PYR/PYL-HAB1 at 200 nM: PYL2; for IC50: dose response in triplicate, non-linear regression
T3 construct: 6xHis (N); made in house; host or cells: E. coli BL21[DE3]pLysS (stated for GST-HAB1)
T3 sequence (O80992 1-190): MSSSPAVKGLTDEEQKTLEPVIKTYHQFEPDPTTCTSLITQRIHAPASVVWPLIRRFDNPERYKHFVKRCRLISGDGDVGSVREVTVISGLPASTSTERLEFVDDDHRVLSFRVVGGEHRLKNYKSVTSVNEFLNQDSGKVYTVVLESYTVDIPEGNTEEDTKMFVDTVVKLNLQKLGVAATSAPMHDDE
T3 sequence (Q9CAJ0 23-511 partner): T1 sequence (Q9CAJ0 23-511 partner)
From the text: as §1, §2, §3

SMILES | activity at 0.2 µM [1] [%] | activity at 0.2 µM [2] [%] | percent inhibition at 0.2 µM [3] [%] | IC50 [1] [nM] | IC50 [3] [nM]
CCCN1C(=O)CCc2cc(NS(=O)(=O)Cc3ccc(F)cc3F)cc(F)c21 [HQ4] | 61.5 | 46.1 | 69.3 |  | 
CCCN1C(=O)CCc2cc(NS(=O)(=O)Cc3ccc(C(=O)OC)cc3)cc(F)c21 [HQ14] | 62.6 | 78.9 | 91.8 |  | 
CCCN1C(=O)CCc2cc(NS(=O)(=O)Cc3ccccc3)cc(F)c21 [HQ26] | 63.6 | 51.4 | 74.8 |  | 
CCCN1C(=O)CCc2cc(NS(=O)(=O)Cc3ccc(C)cc3)cc(Cl)c21 [HQ2] | 37.9 | 20.3 | 38.9 | 47.7 | 74
CCCN1C(=O)CCc2cc(NS(=O)(=O)Cc3ccc(C(F)(F)F)cc3)cc(F)c21 [HQ16] | 52 | 38.5 | 53.9 |  | 
CCCN1C(=O)CCc2cc(NS(=O)(=O)Cc3ccc(Cl)cc3Cl)cc(F)c21 [HQ22] | 91.5 | 70.6 | 86.3 |  | 
CCCN1C(=O)CCc2cc(NS(=O)(=O)Cc3ccc([N+](=O)[O-])cc3)cc(F)c21 [HQ24] | 69 | 53.2 | 76.5 |  | 
CCCN1C(=O)CCc2cc(NS(=O)(=O)Cc3ccccc3C#N)cc(F)c21 [HQ12] | 106 | 82.4 | 94.5 |  | 
CCCN1C(=O)CCc2cc(NS(=O)(=O)Cc3ccc(C)cc3)ccc21 [Quinabactin] | 22 | 23 | 44 | 104 | 262
CCCN1C(=O)CCc2cc(NS(=O)(=O)Cc3ccc(Br)cc3)cc(F)c21 [HQ25] | 33.8 | 20.8 | 42.8 | 75 | 77
CCCN1C(=O)CCc2cc(NS(=O)(=O)Cc3cccc(Br)c3)cc(F)c21 [HQ23] | 90.8 | 85.7 | 87.8 |  | 
CCCN1C(=O)CCc2cc(NS(=O)(=O)Cc3cccc(C(F)(F)F)c3)cc(F)c21 [HQ17] | 104 | 88.1 | 88.2 |  | 
CCCN1C(=O)CCc2cc(NS(=O)(=O)Cc3ccc(C#N)cc3F)cc(F)c21 [HQ11] | 28.8 | 27.9 | 73.5 | 61.2 | 317
CCCN1C(=O)CCc2cc(NS(=O)(=O)Cc3ccc(Cl)cc3Br)cc(F)c21 [HQ9] | 105 | 86.9 | 92.2 |  | 
CCCN1C(=O)CCc2cc(NS(=O)(=O)Cc3cccc(F)c3)cc(F)c21 [HQ21] | 62.4 | 48.2 | 63.7 |  | 
CCCN1C(=O)CCc2cc(NS(=O)(=O)Cc3ccc(Cl)cc3)cc(F)c21 [HQ18] | 35 | 34.2 | 46.7 | 63.3 | 102
CCCN1C(=O)CCc2cc(NS(=O)(=O)Cc3ccc(Br)cc3F)cc(F)c21 [HQ5] | 42.9 | 18.2 | 51.8 |  | 
CCCN1C(=O)CCc2cc(NS(=O)(=O)Cc3ccc(F)cc3Cl)cc(F)c21 [HQ13] | 110 | 88.2 | 94.1 |  | 
CCCN1C(=O)CCc2cc(NS(=O)(=O)Cc3ccc(C)cc3)cc(F)c21 [HQ1] | 14.7 | 11.8 | 28 | 37.5 | 42
CCCN1C(=O)CCc2cc(NS(=O)(=O)Cc3ccc(C#N)cc3)cc(F)c21 [HQ10] | 39.8 | 44.3 | 77.2 |  | 
